How the values were obtained:
purified human MMP-2 = biological target: T1, purified human MMP-2 (Homo sapiens, UniProt P08253); assay: Anti-MMP-2 activity, DQ-gelatin fluorimetry; type: biochemical
T1 construct: purchased BOEHRINGER MANNHEIM; host or cells: purified from human fibrosarcoma (natural, not recombinant)
T1 sequence (P08253 110-660): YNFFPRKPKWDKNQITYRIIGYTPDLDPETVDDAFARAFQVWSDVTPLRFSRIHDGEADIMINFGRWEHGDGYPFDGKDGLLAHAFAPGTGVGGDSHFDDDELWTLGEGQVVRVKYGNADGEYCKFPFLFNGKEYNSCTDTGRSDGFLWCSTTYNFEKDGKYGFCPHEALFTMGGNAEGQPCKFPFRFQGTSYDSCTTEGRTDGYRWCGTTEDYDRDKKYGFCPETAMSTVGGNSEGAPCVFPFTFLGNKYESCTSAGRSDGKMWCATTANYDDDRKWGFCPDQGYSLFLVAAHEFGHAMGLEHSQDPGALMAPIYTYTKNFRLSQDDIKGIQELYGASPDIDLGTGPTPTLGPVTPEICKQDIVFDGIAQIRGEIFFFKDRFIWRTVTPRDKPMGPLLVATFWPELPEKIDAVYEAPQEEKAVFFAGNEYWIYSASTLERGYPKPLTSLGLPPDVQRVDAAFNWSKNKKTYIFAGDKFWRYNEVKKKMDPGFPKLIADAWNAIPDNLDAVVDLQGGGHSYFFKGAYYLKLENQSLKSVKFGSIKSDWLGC
Method: (§1) The anti-MMP-2 and anti-MMP-9 activity of the test products was measured in vitro in a biochemical model of the screening type, based on the use of a purified human MMP-2 and of a recombinant human MMP-9 and of the substrate for the latter, gelatin conjugated to fluorescein (EnzChek™ gelatinase/collagenase kit, MOLECULAR PROBES).
The MMP-2 purified from human fibrosarcoma came from BOEHRINGER MANNHEIM.
(§2) The DQ-gelatin purified from porcine skin and conjugated to fluorescein was supplied in the EnzChek™ gelatinase/collagenase kit (MOLECULAR PROBES).
The reaction buffer for studying the activity of MMP-2 (RBf1) consisted of 50 mM of Tris-HCl, 0.05% (w/v) of Triton X100 and 5 mM of CaCl2, pH 7.5.
(§3) 1,10-Phenanthroline was solubilized in the reaction buffers RBf1 and RBf2. It was tested at 8 and 80 μg/ml.
(§4) Peptide extracts A, B and C were solubilized in the reaction buffers RBf1 and RBf2. They were tested at 0.01; 0.1 and 1% (w/v). […]
(§5) After 24 hours, the signal corresponding to the degradation of the DQ-gelatin was measured by fluorimetry (excitation: 485 nm and emission: 595 nm) For each sample, the value obtained for the “samples without enzyme” was subtracted.
(§6) The results were expressed as fluorescence units per sample and as percentage variation relative to the control group. […]

recombinant human MMP-9 = biological target: T2, recombinant human MMP-9 (Homo sapiens, UniProt P14780); assay: Anti-MMP-9 activity, DQ-gelatin fluorimetry; type: biochemical
T2 construct: purchased R&D SYSTEMS
Method: as §1
The recombinant human MMP-9 came from R&D SYSTEMS.
as §2
The reaction buffer for studying the activity of MMP-9 (RBf2) consisted of 50 mM of Tris-HCl, 0.05% (w/v) of Brij 35 and 5 mM of CaCl2, pH 7.4.
as §3, §4, §5, §6

[1] = tested on: MMP-1 in human fibroblasts irradiated with UVA rays; assay: Amount of MMP-1 secreted by UVA-irradiated human dermal fibroblasts (ELISA); type: cell-based; settings: Fibroblast, light or radiation study, 80 μg/ml, read-out: inhibition of the secretion of MMP-1 by the irradiated fibroblasts
Method: (§7) The study was carried out on human dermal fibroblasts in monolayer culture. The cells were pre-incubated for 1 hour at 37° C. in the presence of the reference products and of the test product. Then, the cells were irradiated with a single dose of 10 J/cm^2 of UVA, in the presence of the product to be tested and of the reference products.
(§8) Immediately after irradiation, the cells were incubated for 48 h at 37° C., still in the presence of the product to be tested and of the reference products.
(§9) The various MMPs are tested in the culture media using specific ELISA kits (Amersham).
(§10) 1,10-Phenanthroline, which is a nonspecific inhibitor of MMPs, and was tested at 80 μg/ml, was used as a reference product.
(§11) A 10 μg/ml retinoic acid+10 ng/ml EGF mixture was used for its abilities to induce TIMP1 (TIMP1, Tissue Inhibitor of MMP, physiological inhibitor of MMPs).
(§12) A stock solution containing 10% (w/v) of lupin peptides was prepared in deionized water. Using this solution, dilutions were prepared in the fibroblast culture medium. The peptide extract of lupin was tested at 0.5; 1 and 2% (v/v).
(§13) Irradiated and nonirradiated control cultures were incubated in parallel, in the absence of the reference products and of the test product. […]
(§14) They are given in the table below and the results are expressed as % relative to the “irradiated cells” group.

[2] = tested on: MMP-9 in human fibroblasts irradiated with UVA rays; assay: Amount of MMP-9 secreted by UVA-irradiated human dermal fibroblasts (ELISA); type: cell-based; settings: Fibroblast, light or radiation study, 80 μg/ml, read-out: inhibition of the secretion of MMP-9 by the irradiated fibroblasts
Method: as §7, §8, §9, §10, §11, §12, §13, §14

[3] = tested on: MMP-3 in human fibroblasts irradiated with UVA rays; assay: Amount of MMP-3 secreted by UVA-irradiated human dermal fibroblasts (ELISA); type: cell-based; settings: Fibroblast, light or radiation study, 80 μg/ml, read-out: inhibition of the secretion of MMP-3 by the irradiated fibroblasts
Method: as §7, §8, §9, §10, §11, §12, §13, §14

[4] = tested on: purified collagenase (type III, fraction A); assay: Anticollagenase activity in organotypic model of human skin sections (Masson trichrome, morphology and image analysis); type: biochemical; parameters: key to Enzymatic digestion (morphological observation): 0: zero enzymatic digestion; +: weak enzymatic digestion; ++: average enzymatic digestion; +++: strong enzymatic digestion; settings: phosphoramidon 10^−3 M; collagenase 50 IU/ml, 3 hours 37° C.
Method: The anticollagenase activity of a test product can be studied in vitro in an organotypic model of human skin. The principle of the test is as follows: application of purified collagenase to sections is accompanied by degradation of the endogenous collagen fibers. The collagen fibers are then stained with Masson trichrome. The digestion of the endogenous collagen fibers by the purified collagenase is evaluated qualitatively by morphological observation and quantitatively by image analysis. A product which has anticollagenase activity will partially or totally preserve the integrity of the collagen fibers placed in the presence of the enzyme.
Three dilutions were tested: 0.01; 0.1 and 1% (v/v). […]
After incubation, the sections were rinsed with the incubation medium and stained with Masson trichrome. The activity of the enzyme in the presence and absence of the extract, of the ethanol or of the reference product was evaluated by microscopic observation and scored according to the following scheme:
The activity of the collagenase in the presence and absence of the test products, of the ethanol or of the reference product was evaluated by image analysis. […] The results were expressed as a percentage of intact collagen fibers per optical field. […]
For the reference product (directly taken up in the vehicle), the percentage inhibition is calculated using the following formula: […]

T2 sequence (P14780 94-707): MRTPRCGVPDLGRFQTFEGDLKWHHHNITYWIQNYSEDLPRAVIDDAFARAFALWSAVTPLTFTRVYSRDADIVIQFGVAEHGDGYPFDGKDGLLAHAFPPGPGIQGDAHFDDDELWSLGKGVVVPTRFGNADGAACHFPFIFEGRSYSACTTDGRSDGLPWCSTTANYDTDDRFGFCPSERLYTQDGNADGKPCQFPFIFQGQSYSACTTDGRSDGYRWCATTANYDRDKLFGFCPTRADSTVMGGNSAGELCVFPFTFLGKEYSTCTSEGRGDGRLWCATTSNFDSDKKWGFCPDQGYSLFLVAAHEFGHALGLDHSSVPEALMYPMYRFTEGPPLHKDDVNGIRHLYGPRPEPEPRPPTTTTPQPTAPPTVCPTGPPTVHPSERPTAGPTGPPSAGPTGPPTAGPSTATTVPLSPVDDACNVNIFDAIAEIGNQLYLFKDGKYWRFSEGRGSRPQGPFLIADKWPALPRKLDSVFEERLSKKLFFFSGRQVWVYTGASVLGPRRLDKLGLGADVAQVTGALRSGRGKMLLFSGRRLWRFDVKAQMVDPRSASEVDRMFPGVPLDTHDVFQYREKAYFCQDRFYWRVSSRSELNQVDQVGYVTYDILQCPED

| SMILES | inhibition at 8 µg/mL (purified human MMP-2; 8 μg/ml) [%] | inhibition at 80 µg/mL (purified human MMP-2; 80 μg/ml) [%] | inhibition at 8 µg/mL (recombinant human MMP-9; 8 μg/ml) [%] | inhibition at 80 µg/mL (recombinant human MMP-9; 80 μg/ml) [%] | inhibition at 80 µg/mL [1] [%] | inhibition at 80 µg/mL [2] [%] | inhibition at 80 µg/mL [3] [%] | % inhibition of the collagenase activity (image analysis) [4] [%] | Enzymatic digestion (morphological observation) [4] |
| --- | --- | --- | --- | --- | --- | --- | --- | --- | --- |
| c1cnc2c(c1)ccc1cccnc12 [1,10-phenanthroline] | 32 | 73 | 80 | 76 | 99 | 92 | 97 | – | – |
| CC(C)C[C@H](NP(=O)(O)O[C@@H]1O[C@@H](C)[C@H](O)[C@@H](O)[C@H]1O)C(=O)N[C@@H](Cc1c[nH]c2ccccc12)C(=O)O [Phosphoramidon] | – | – | – | – | – | – | – | 16 | + |
